US20230174561A1, “IONIC COMPOUND AND COMPOSITION THEREOF FOR HYDROPHOBIC PROTEIN EXTRACTION; AND ANTI-NONSPECIFIC PROTEIN ADSORPTION ZWITTERIONIC COMPOUND AND ELEMENT WITH ANTI-NONSPECIFIC PROTEIN ADSORPTION LAYER COMPRISING THE SAME” (priority 2021, published 2023)
Read-outs that look alike come from different tables or passages of the source.

Legend:
[1] = test system: gliadin; experiment: Solubility of gliadin in ionic solutions (excess gliadin, Wheat/Gluten (Gliadin) ELISA Kit); format: physicochemical
Experimental: Gliadin is a hydrophobic protein present in gluten of wheat. Unless specifically stated, gliadin (G3375, Sigma-Aldrich; CAS No. 9007-90-3) or was used in the following tests.
First of all, ionic solutions of [DMePIm][OMs] with a concentration of 0.1 wt %, 1 wt %, 2 wt %, 5 wt % and 10 wt % in water were prepared. 3 grams (g) of gliadin (excess amount) was added into 10 mL of each [DMePIm][OMs] ionic solution, mixed homogenously and stood still for 5 min to give sample solutions for Test Example 1. All sample solutions were centrifuged at 8500 rpm for 3 min and filtered with a filter with 0.22 μm pore size. Water (0 wt %) was used as the control group. After that, Wheat/Gluten (Gliadin) ELISA Kit (Crystal chem, AOAC No. 011804) was used to determine the concentration and solubility of gliadin. Since the examination of the Wheat/Gluten (Gliadin) ELISA Kit is about 100 ppm, the gliadin concentration was determined by diluted sample solutions with at least 50-fold dilution by the corresponding ionic solution, in order to calculate the gliadin concentration of the sample solutions.
Similar with Test Example 1, except that 3 g of gliadin was added into 10 mL of 1 wt % ionic solution of [DMeIm][OMs](value “a” of Formula I is 0), [TMeIm][OMs] (a=1), [DMePrIm][OMs] (a=3), [DMePIm][OMs] (a=5), [DMeHpIm][OMs] (a=7), [DMeNnIm][OMs] (a=9) or [DMeDdIm][OMs] (a=12). […] (a=5), [DMeHpIm][OMs] (a=7), [DMeNnIm][OMs] ([…]) and [DMeDdIm][OMs] (a=12) ionic solutions, in which the corresponding groups attached on 3-position of the 1,2-dimethyl imidazolium had different carbon numbers (value “a” of Formula I) of 5, 7, 9 and 12, respectively. The [DMeDdIm][OMs]
Similar with Test Example 1, except that 3 g of gliadin was respectively added into 10 mL of 1 wt % ionic solutions of [DMePIm][Cl], [DMePIm][F], [DMePIm][OMs], [DMePIm][NO3], [DMePIm][H2PO4] and [DMePIm][HSO4].

[2] = test system: Mouse N2a neuroblastoma cells (N2a cells); experiment: Biocompatibility, XTT cell survival test; format: cell-based; conditions: 0.1, 1, 2, 5 and 10 wt % in medium, 6 h, FIG. 7
Experimental: Mouse N2a neuroblastoma cells (N2a cells) were cultured and maintained in DMEM High Glucose with L-glutamine and sodium pyruvate (DMEM-HPA-P10, Capricorn Scientific) containing 10% fetal bovine serum (FBS). The N2a cells were seeded in a 6-well plate with a density of 2×10^5 cells/well overnight. Then the medium was replaced with a testing DMEM High Glucose medium containing 0.1 wt %, 1 wt %, 2 wt %, 5 wt % and 10 wt % of [DMePIm][OMs] and the cells were incubated in an incubator (37° C., 5% CO2 humidified atmosphere) for 6 h. The testing medium was removed, the cells were washed, and new DMEM High Glucose containing 10% FBS was added and incubated for another 12 h. After that, the cells were subjected to XTT test (X12223, purchased from Thermo Fisher) for determining cell survival rate.

## CCCCCCCCCCCC[n+]1ccn(C)c1C.CS(=O)(=O)[O-] [[DMeDdIm][OMs], [1,2-dimethyl, 3-dodecyl imidazolium][methanesulfonyl]]
[1]; 1 wt % ionic solution
  viscosity of ionic solution: higher viscosity

## CCCCCCC[n+]1ccn(C)c1C.CS(=O)(=O)[O-] [[DMeHpIm][OMs], [1,2-dimethyl, 3-heptyl imidazolium][methanesulfonyl]]
[1]
  solubility of gliadin in ionic solutions with different cations: higher solubility

## CCCCCCCCC[n+]1ccn(C)c1C.CS(=O)(=O)[O-] [[DMeNnIm][OMs], [1,2-dimethyl, 3-nonyl imidazolium][methanesulfonyl]]
[1]
  solubility of gliadin in ionic solutions with different cations: higher solubility

## CCCCC[n+]1ccn(C)c1C [[DMePIm][OMs], [1,2-dimethyl, 3-pentyl imidazolium][methanesulfonyl]]
[2]
  survival rates of cells: high
[1]; 1 wt % ionic solution, 1-30 min, FIG. 2
  concentration of gliadin over time: reached its maximum solubility shortly
[1]; 1 wt % ionic solution, FIG. 3
  solubility of gliadin in ionic solutions with different cations: higher solubility
[1]; 1 wt % ionic solution, FIG. 4
  solubility of gliadin in ionic solutions with different anions: greatest solubility
